Measured values: PubChem BioAssay AID2060888 (Molecular Pharmacology Branch, DTP, NCI, 2025)
pIC50: −log10 of the molar value. Each block holds one compound with its values, some of them ahead of it.

Test system: 695427-040-R-J1-PDC complex spheroid viability
Assay: Anticancer human tumor 695427-040-R-J1-PDC patient-derived colon adenocarcinoma cell line growth inhibition [RAS]
Conditions: for pIC50: curve of first compound; for viability, T/C: stronger effect = lower value
Procedure, shortened: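 Tumour cells grown as complex spheroids with HUVEC endothelial cells and mesenchymal stem cells, treated with RAS pathway inhibitor combinations. Each agent spans half-log steps from near clinical Cmax, or 10 microM where Cmax is unknown.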

[1] = second compound 0.000949 µM, first compound 0.0316 µM
[2] = second compound 0.000949 µM, first compound 0.1 µM
[3] = second compound 0.000949 µM, first compound 0.316 µM
[4] = second compound 0.000949 µM, first compound 1 µM
[5] = second compound 0.000949 µM, first compound 3.16 µM
[6] = second compound 0.000949 µM, first compound 10 µM
[7] = second compound 0.003 µM, first compound 0.0316 µM
[8] = second compound 0.003 µM, first compound 0.1 µM
[9] = second compound 0.003 µM, first compound 0.316 µM
[10] = second compound 0.003 µM, first compound 1 µM
[11] = second compound 0.003 µM, first compound 3.16 µM
[12] = second compound 0.003 µM, first compound 10 µM
[13] = second compound 0.00949 µM, first compound 0.0316 µM
[14] = second compound 0.00949 µM, first compound 0.1 µM
[15] = second compound 0.00949 µM, first compound 0.316 µM
[16] = second compound 0.00949 µM, first compound 1 µM
[17] = second compound 0.00949 µM, first compound 3.16 µM
[18] = second compound 0.00949 µM, first compound 10 µM
[19] = second compound 0.03 µM, first compound 0.0316 µM
[20] = second compound 0.03 µM, first compound 0.1 µM
[21] = second compound 0.03 µM, first compound 0.316 µM
[22] = second compound 0.03 µM, first compound 1 µM
[23] = second compound 0.03 µM, first compound 3.16 µM
[24] = second compound 0.03 µM, first compound 10 µM
[25] = second compound 0.0949 µM, first compound 0.0316 µM
[26] = second compound 0.0949 µM, first compound 0.1 µM
[27] = second compound 0.0949 µM, first compound 0.316 µM
[28] = second compound 0.0949 µM, first compound 1 µM
[29] = second compound 0.0949 µM, first compound 3.16 µM
[30] = second compound 0.0949 µM, first compound 10 µM
[31] = second compound 0.3 µM, first compound 0.0316 µM
[32] = second compound 0.3 µM, first compound 0.1 µM
[33] = second compound 0.3 µM, first compound 0.316 µM
[34] = second compound 0.3 µM, first compound 1 µM
[35] = second compound 0.3 µM, first compound 3.16 µM
[36] = second compound 0.3 µM, first compound 10 µM
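Note: viability read after seven days of drug exposure.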
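Throughout, for viability, T/C: 100% = DMSO vehicle control viability.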

pIC50 (second compound 0.00316 µM): < 7.00
pIC50 (second compound 0.01 µM): < 7.00
pIC50 (second compound 0.0316 µM): < 7.00
pIC50 (second compound 0.1 µM): < 7.00
pIC50 (second compound 0.316 µM): < 7.00
pIC50 (second compound 1 µM): < 7.00
Structure (SMILES): CC(C)n1nc(-c2ccc3oc(N)nc3c2)c2c(N)ncnc21 + C=CC(=O)N1CCN(c2nc(OCC3CCCN3C)nc3c(F)c(-c4nc(N)cc(C)c4C(F)(F)F)c(Cl)cc23)C(C)C1
viability, T/C (second compound 0.00316 µM, first compound 0.000316 µM): 98.5%
viability, T/C (second compound 0.00316 µM, first compound 0.001 µM): 96.5%
viability, T/C (second compound 0.00316 µM, first compound 0.00316 µM): 82.4%
viability, T/C (second compound 0.00316 µM, first compound 0.01 µM): 80.2%
viability, T/C (second compound 0.00316 µM, first compound 0.0316 µM): 72.2%
viability, T/C (second compound 0.00316 µM, first compound 0.1 µM): 61.8%
viability, T/C (second compound 0.01 µM, first compound 0.000316 µM): 106%
viability, T/C (second compound 0.01 µM, first compound 0.001 µM): 87.4%
viability, T/C (second compound 0.01 µM, first compound 0.00316 µM): 96.5%
viability, T/C (second compound 0.01 µM, first compound 0.01 µM): 79.9%
viability, T/C (second compound 0.01 µM, first compound 0.0316 µM): 70.9%
viability, T/C (second compound 0.01 µM, first compound 0.1 µM): 58.1%
viability, T/C (second compound 0.0316 µM, first compound 0.000316 µM): 101%
viability, T/C (second compound 0.0316 µM, first compound 0.001 µM): 89.8%
viability, T/C (second compound 0.0316 µM, first compound 0.00316 µM): 86%
viability, T/C (second compound 0.0316 µM, first compound 0.01 µM): 75%
viability, T/C (second compound 0.0316 µM, first compound 0.0316 µM): 76.5%
viability, T/C (second compound 0.0316 µM, first compound 0.1 µM): 65%
viability, T/C (second compound 0.1 µM, first compound 0.000316 µM): 103%
viability, T/C (second compound 0.1 µM, first compound 0.001 µM): 96.1%
viability, T/C (second compound 0.1 µM, first compound 0.00316 µM): 90%
viability, T/C (second compound 0.1 µM, first compound 0.01 µM): 77%
viability, T/C (second compound 0.1 µM, first compound 0.0316 µM): 70.4%
viability, T/C (second compound 0.1 µM, first compound 0.1 µM): 66.7%
viability, T/C (second compound 0.316 µM, first compound 0.000316 µM): 101%
viability, T/C (second compound 0.316 µM, first compound 0.001 µM): 88.6%
viability, T/C (second compound 0.316 µM, first compound 0.00316 µM): 88.8%
viability, T/C (second compound 0.316 µM, first compound 0.01 µM): 84%
viability, T/C (second compound 0.316 µM, first compound 0.0316 µM): 69.9%
viability, T/C (second compound 0.316 µM, first compound 0.1 µM): 61.6%
viability, T/C (second compound 1 µM, first compound 0.000316 µM): 98.4%
viability, T/C (second compound 1 µM, first compound 0.001 µM): 87.1%
viability, T/C (second compound 1 µM, first compound 0.00316 µM): 88.3%
viability, T/C (second compound 1 µM, first compound 0.01 µM): 78.3%
viability, T/C (second compound 1 µM, first compound 0.0316 µM): 72.6%
viability, T/C (second compound 1 µM, first compound 0.1 µM): 63.4%

pIC50 (second compound 0.000949 µM): 6.07
pIC50 (second compound 0.003 µM): 6.17
pIC50 (second compound 0.00949 µM): 6.24
pIC50 (second compound 0.03 µM): > 7.50
pIC50 (second compound 0.0949 µM): > 7.50
pIC50 (second compound 0.3 µM): > 7.50
Structure (SMILES): CC(Nc1ccc2c(c1)OCCn1cc(N3C(=O)OCC3C(F)F)nc1-2)C(N)=O (stereo not drawn) + CCn1c(-c2cc(N3CCN(C)CC3)cnc2C(C)OC)c2c3cc(ccc31)-c1csc(n1)CC(NC(=O)C1CC1C)C(=O)N1CCCC(N1)C(=O)OCC(C)(C)C2
viability, T/C [1]: 61.4%
viability, T/C [2]: 72.4%
viability, T/C [3]: 69.7%
viability, T/C [4]: 47.1%
viability, T/C [5]: 39.1%
viability, T/C [6]: 38%
viability, T/C [7]: 100%
viability, T/C [8]: 70.5%
viability, T/C [9]: 59.5%
viability, T/C [10]: 41.9%
viability, T/C [11]: 45.6%
viability, T/C [12]: 41.9%
viability, T/C [13]: 86.2%
viability, T/C [14]: 66.2%
viability, T/C [15]: 54%
viability, T/C [16]: 49.8%
viability, T/C [17]: 32.2%
viability, T/C [18]: 25.6%
viability, T/C [19]: 45.6%
viability, T/C [20]: 48.3%
viability, T/C [21]: 32.2%
viability, T/C [22]: 27.1%
viability, T/C [23]: 26.6%
viability, T/C [24]: 22.3%
viability, T/C [25]: 35%
viability, T/C [26]: 33.3%
viability, T/C [27]: 31.4%
viability, T/C [28]: 19.1%
viability, T/C [29]: 21.3%
viability, T/C [30]: 14.6%
viability, T/C [31]: 36.1%
viability, T/C [32]: 22.2%
viability, T/C [33]: 24.3%
viability, T/C [34]: 17.1%
viability, T/C [35]: 14.9%
viability, T/C [36]: 13.7%

IC50 (compound alone, run of 06/10/2024): 6.3 µM [middle of 8 runs]
Structure (SMILES): C#Cc1c(F)ccc2cc(O)cc(-c3ncc4c(N5CC6CCC(C5)N6)nc(OCC56CCCN5CC(F)C6)nc4c3F)c12 (stereo not drawn)
viability, T/C (compound 0.0316 µM): 99.3% [middle of 8 runs]
viability, T/C (compound 0.1 µM): 95.3% [middle of 8 runs]
viability, T/C (compound 0.316 µM): 89.5% [middle of 8 runs]
viability, T/C (compound 1 µM): 73.6% [middle of 8 runs]
viability, T/C (compound 3.16 µM): 62.1% [middle of 8 runs]
viability, T/C (compound 10 µM): 42.7% [middle of 8 runs]

pIC50 (second compound 0.000949 µM): < 5.00
pIC50 (second compound 0.003 µM): < 5.00
pIC50 (second compound 0.00949 µM): < 5.00
pIC50 (second compound 0.03 µM): < 5.00
pIC50 (second compound 0.0949 µM): < 5.00
pIC50 (second compound 0.3 µM): > 7.50
Structure (SMILES): C[C@@H](NC(=O)c1ncnc(N)c1Cl)c1ncc(C(=O)Nc2cc(C(F)(F)F)c(Cl)cn2)s1 + CCn1c(-c2cc(N3CCN(C)CC3)cnc2C(C)OC)c2c3cc(ccc31)-c1csc(n1)CC(NC(=O)C1CC1C)C(=O)N1CCCC(N1)C(=O)OCC(C)(C)C2
viability, T/C [1]: 77.4%
viability, T/C [2]: 94%
viability, T/C [3]: 84.1%
viability, T/C [4]: 87.6%
viability, T/C [5]: 108%
viability, T/C [6]: 78.5%
viability, T/C [7]: 117%
viability, T/C [8]: 91%
viability, T/C [9]: 99.6%
viability, T/C [10]: 85.9%
viability, T/C [11]: 117%
viability, T/C [12]: 70.1%
viability, T/C [13]: 95.3%
viability, T/C [14]: 83.4%
viability, T/C [15]: 83.6%
viability, T/C [16]: 84.4%
viability, T/C [17]: 85.6%
viability, T/C [18]: 53.1%
viability, T/C [19]: 65.8%
viability, T/C [20]: 71%
viability, T/C [21]: 76.3%
viability, T/C [22]: 72.4%
viability, T/C [23]: 81.3%
viability, T/C [24]: 55.6%
viability, T/C [25]: 56.2%
viability, T/C [26]: 58.2%
viability, T/C [27]: 58.4%
viability, T/C [28]: 48.7%
viability, T/C [29]: 72.4%
viability, T/C [30]: 51.2%
viability, T/C [31]: 36.4%
viability, T/C [32]: 44.2%
viability, T/C [33]: 44.4%
viability, T/C [34]: 45.4%
viability, T/C [35]: 50.1%
viability, T/C [36]: 33%
